Assay results published in patent US7855228B2, “Antibiotics targeting MreB” (The Board of Trustees of the Leland Stamford Junior …, priority 2005, dated 2010).
Values after ≈ are worked out from the molar mass of the structure shown. Like-named read-outs stand apart in the source and are kept apart here.

Assays:
Caulobacter = Caulobacter morphology (DIC images); assay type: cell-based, Caulobacter crescentus
Description: Consistent with previous observations in E. coli (Iwai et al., 2002), A22 caused a dose-dependent alteration of Caulobacter morphology, transforming normal, crescent-shaped cells into rounded, lemon-shaped cells. The progression of cell shape deformation by A22 treatment was qualitatively similar to that caused by mreB depletion, though the A22 effect was more rapid (FIGS. […]). […] For example, A22 could disrupt the localization of new cell wall synthesis but have no effect on the existing cell wall, such that without additional growth and wall synthesis A22's effects cannot be perceived. A dependence on cell growth could also explain why A22's effect on morphology takes several hours to manifest.
Microscopy and Timelapse Imaging. All experiments other than the A22 flow-cell analysis were performed by mounting the samples on 1% agarose pads as described, with the appropriate concentration of A22 added to the agarose. The rates of origin-distal locus segregation were determined by inducing PxyI:lacI:cfp expression with 0.03% xylose for 75 min, isolating swarmer cells, and growing the swarmer cells in M2G liquid medium for 50 min. After 50 min, 10 μg/ml of A22 was added to these liquid cultures, they were mounted onto 1% M2G agarose pads containing 10 μg/ml A22, and a phase and CFP fluorescence image was captured every 2 min for 60 min. The images were analyzed by previously described software to determine the average position and rate of movement of the observed foci.

MreB-GFP fusion protein = target: T1, MreB-GFP fusion protein (Escherichia coli, UniProt P0A9X4); test: MreB helical structures in vivo (MreB-GFP); assay type: cell-based, E. coli; conditions: 10 μg/ml
T1 construct: expressed in transfected cells; host or cells: E. coli JM109 carrying pMreB1-GFP (native mreB promoter)
Procedure: FIG. 11. In vivo effects of A22. Exponentially growing JM109/pMreB1-GFP cells were treated with 10 μg/ml of A22, and changes in cell shape and GFP fluorescence were observed. (a, b) no treatment; (c, d) 30 min after A22 treatment; (e, f) 60 min after A22 treatment; (g, h) 120 min after A22 treatment.
It was recently shown that the MreB forms helical structures in E. coli as well as B. subtilis. […] In rounded cells, MreB-GFP appeared as discrete dots located close to the cell surface (FIGS. 11e-11h), which may be the result of aggregation of MreB-GFP protein de-polymerized by A22.
Construction of a mreB-gfp fusion plasmid A DNA fragment encoding the wild-type mreB gene was PCR-amplified from pMreB1 with primers (SEQ ID NO:5) 5′-[…]-3′ and (SEQ ID NO:6) 5′-[…]-3′. After cutting with Xba I and Nhe I, the PCR-generated DNA fragments were ligated to an XbaI-NheI-cut gfp vector pQIB-T7-GFP (Qbiogene Inc., Irvine, Calif., USA), resulting in an mreB-gfp translational fusion. From the resulting plasmid, an Aor51HI-HindIII fragment encoding the C-terminal portion of MreB fused with GFP was isolated and used to replace the Aor51HI-HindIII fragment of pMreB1, resulting in a plasmid pMreB1-GFP that expresses the MreB-GFP fusion protein from the native mreB promoter. […]

S. typhimurium NBRC13245 = test: Determination of minimum inhibitory concentration (MIC); assay type: cell-based, Salmonella typhimurium; conditions: Salmonella enterica, read-out: MIC S. typhimurium
In short: (§1)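 Two-fold serial agar dilution on L agar and also on Mueller Hinton agar (pH 7.3); 10 µl of stationary-phase culture diluted in 0.85% NaCl to 10^6 cells/ml spotted per plate. MIC taken as lowest concentration inhibiting growth.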

B. subtilis 168 = test: as above; assay type: cell-based, Bacillus subtilis; conditions: read-out: MIC B. subtilis
In short: as §1

E. coli MG1655 = test: as above; assay type: cell-based; conditions: Escherichia coli, read-out: MIC E. coli
In short: as §1

E. coli JA221, JST975 = test: Cell shapes of A22-resistant mutant JA221 and parent JST975; assay type: cell-based; conditions: 10 μg/ml A22
Procedure: FIG. 9. Effects of A22 and mecillinam on cell shapes of the A22-resistant mutant JA221. Exponentially growing cells of the A22-resistant mutant strain JA221 and the parent strain JST975 were treated with 1 μg/ml mecillinam or 10 μg/ml A22 for 2 h at 37° C. Differential interference contrast microphotographs are shown.
After prolonged (9 days) incubation of the JST975 assay plates, several isolated colonies that grew up within the clear growth inhibitory zones were purified on L plates and their A22-sensitivity was examined.

T1 sequence (P0A9X4 whole entry, the tested form may be a part): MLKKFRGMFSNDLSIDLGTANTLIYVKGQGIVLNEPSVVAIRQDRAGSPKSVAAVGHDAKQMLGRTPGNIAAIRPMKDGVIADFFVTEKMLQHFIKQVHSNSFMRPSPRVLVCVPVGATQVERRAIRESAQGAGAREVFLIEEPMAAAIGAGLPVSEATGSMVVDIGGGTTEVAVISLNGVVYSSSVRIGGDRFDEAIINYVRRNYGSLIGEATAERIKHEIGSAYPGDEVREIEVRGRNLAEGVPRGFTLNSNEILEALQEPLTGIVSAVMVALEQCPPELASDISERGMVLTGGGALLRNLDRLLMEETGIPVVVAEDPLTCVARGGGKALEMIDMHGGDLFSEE

Q: How did the “Caulobacter growth and cell shape” value (Caulobacter; 100 μg/ml) turn out when `N=C(N)SCc1ccc(Cl)c(Cl)c1` [Compound 1, S-(3,4-dichlorobenzyl)isothiourea] was run?
A: The value was “completely blocked growth but did not cause Caulobacter to round up”.

Q: And the “Caulobacter growth and cell shape” value (Caulobacter; 0.1, 1, and 10 μg/ml)?
A: Its value is “both slowed cell growth and altered cell shape”.

Q: And the “MreB-GFP dots and bands (helical structures)” value (MreB-GFP fusion protein; 30-minute treatment, JM109 cells)?
A: The value was “fluorescent dots and bands disappeared”.

Q: What about the “Cell shape of MreB-GFP expressing JM109 cells” value (MreB-GFP fusion protein; after 120 minutes) of the same molecule?
A: Its value is “almost spherical”.

Q: And the MIC (S. typhimurium NBRC13245; Example 2, methods as in Example 1)?
A: Its MIC is 3.13 µg/mL (≈ 13.3 µM).

Q: What about the MIC (S. typhimurium NBRC13245; Table 1, NBRC13245) of the same molecule?
A: Its MIC is 3.13 µg/mL (≈ 13.3 µM).

Q: What about the MIC (B. subtilis 168; Bacillus subtilis, 168, Example 2, methods as in Example 1) of the same molecule?
A: The MIC was 100 µg/mL (≈ 425 µM).

Q: What about the MIC (B. subtilis 168; Bacillus subtilis, 168, Table 1, B. subtilis 168) of the same molecule?
A: Its MIC is 100 µg/mL (≈ 425 µM).

Q: And the MIC (E. coli MG1655; MG1655, Example 2, methods as in Example 1)?
A: The MIC was 3.13 µg/mL (≈ 13.3 µM).

Q: And the MIC (E. coli MG1655; MG1655, Table 1, E. coli MG1655)?
A: Its MIC is 3.13 µg/mL (≈ 13.3 µM).

Q: And the “Cell shape of parent strain JST975” value (E. coli JA221, JST975)?
A: Its value is “formed spherical cells”.

Q: And the “Cell shape of resistant mutant JA221” value (E. coli JA221, JST975)?
A: Its value is “grew as rods”.
